Experimental data: US6589990B1, “Methods and compositions for misoprostol compound treatment of erectile dysfunction” (priority 1997, dated 2003)
Like-named read-outs stand apart in the source and are kept apart here.

Tests used:
[1] = test system: vessels of the glans penis; assay: Vasodilatory action, into the corpus cavernosum versus topical; format: in vivo; settings: external application; compared with misoprostol
From the text: This is due to the differences in the mechanism of action on erectile function between misoprostol and other vasodilators (e.g. alprostadil): misoprostol applied topically can penetrate into the corpora cavernosa and can act on the smooth muscle fibers of the vessels, compared to other vasodilators. Further, its major site of action is on the vessels of the glans penis, and to a lesser extent, the prepuce.

[2] = Single high dosage, systemic undesirable effects (Example 9); settings: in the presence of α-cyclodextrin
[3] = cited from earlier work
[4] = Solubility in water; format: physicochemical
[5] = test system: human male subjects having ED; assay: Clinical trials in human male subjects having ED; format: in vivo
Procedure: Subjects were 52 men aged 22-67 years, with ED of various causes. […] In all trials with these subjects, the following methods were applied successively for from a few days to 4 weeks: intracavernosal injection of 1.0 ml papaverine solution, 40 μγ/ml; […]; […]; topical application to the glans penis 0.08 to 0.1 ml, misoprostol gel 1000 μg/ml; intraurethral application of 0.08 to 0.1 ml misoprostol gel 1000 μg/ml; and topical application to the glans penis 0.1 ml. Gel of placebo.
In the tests using either the gel or cream containing about […] of misoprostol per 0.1 ml, the formulation was applied by the patients themselves using their finger and a few retroactive movements of the prepuce on the glans of penis until the ointment was completely absorbed. The intraurethral gel was instilled by the patients with help of a thin syringe and a lubricating medium (propylene glycol or glycerin) to facilitate insertion of the syringe.
In some patients with venous leak problems, a bandage tourniquet with a rubber band (or condom) on the base of the penis was applied 15-20 minutes after application of misoprostol. This method was particularly effective. […] In various subjects with ED due to one of several different causes, “pelvic exercises” were recommended (Kegel exercises) while the erection was developing. […] All tests were performed in the clinic without visual or any other type of stimulation.

[6] = human, in vivo
[7] = at 35° C.; cited from earlier work
[8] = total (N = 52), externally applied gel, 80-100 μg
[9] = total (N = 52), intraurethral applied gel, 80-100 μg
[10] = total (N = 52), intracavernosal injection, 0.5 ml of 1.0 mg/ml
[11] = total (N = 52), intraurethral ointment or γ-cyclodextrin complex in K-Y jelly, 1000 μg PGE1 in 0.1 ml
[12] = total (N = 52), intracavernosal injection, 1 ml of 4%

CCCCC(C)(O)C/C=C/[C@H]1[C@H](O)CC(=O)[C@@H]1CCCCCCC(=O)O (mixture of isomers) [misoprostol acid]
topical vasodilation [1]: equivalent strong topical vasodilation

CCCCC(C)(O)C/C=C/[C@H]1[C@H](O)CC(=O)[C@@H]1CCCCCCC(=O)OC (mixture of isomers) [misoprostol, (11a 13E)-(±)-11,16-dihydroxy-16-methyl-9-oxoprost-13-en-1-oic acid methyl ester]
single higher dose allowed, undesirable effects reduced or eliminated [2]: > 2000 micrograms | undesirable effect of oral therapy [3]: male impotence | solubility in water (in words) [4]: water soluble | allergic or other topical reaction ([5]; application to glans penis or urethra): No allergic or any other topical reaction was reported except for redness of the glans | subjects having a positive pharmacological outcome ([5]; hormonal ED (N = 1), externally applied gel, 80-100 μg): 1 | subjects having a positive pharmacological outcome ([5]; hormonal ED (N = 1), intraurethral applied gel, 80-100 μg): 1 | subjects having a positive pharmacological outcome ([5]; neurogenic ED (N = 5), externally applied gel, 80-100 μg): 4 | subjects having a positive pharmacological outcome ([5]; neurogenic ED (N = 5), intraurethral applied gel, 80-100 μg): 5 | subjects having a positive pharmacological outcome ([5]; psychogenic ED (N = 15), externally applied gel, 80-100 μg): 13 | subjects having a positive pharmacological outcome ([5]; psychogenic ED (N = 15), intraurethral applied gel, 80-100 μg): 14 | percent of subjects having a positive pharmacological outcome [5, 8]: 62% | subjects having a positive pharmacological outcome [5, 8]: 32 | percent of subjects having a positive pharmacological outcome [5, 9]: 73% | subjects having a positive pharmacological outcome [5, 9]: 38 | subjects having a positive pharmacological outcome ([5]; undetermined etiology (N = 7), externally applied gel, 80-100 μg): 4 | subjects having a positive pharmacological outcome ([5]; undetermined etiology (N = 7), intraurethral applied gel, 80-100 μg): 5 | subjects having a positive pharmacological outcome ([5]; vascular ED (N = 24), externally applied gel, 80-100 μg): 10 | subjects having a positive pharmacological outcome ([5]; vascular ED (N = 24), intraurethral applied gel, 80-100 μg): 13 | single high dose that can cause systemic undesirable effects (fatigue, erythema and diarrhea) [6]: > 1000 micrograms | single high dose that can cause systemic undesirable effects (fatigue, erythema and diarrhea) ([6]; male): > 1800 micrograms

CCCCC[C@H](O)/C=C/[C@H]1[C@H](O)CC(=O)[C@@H]1CCCCCCC(=O)O [alprostadil]
subjects having a positive pharmacological outcome ([5]; hormonal ED (N = 1), intracavernosal injection, 0.5 ml of 1.0 mg/ml): 1 | subjects having a positive pharmacological outcome ([5]; hormonal ED (N = 1), intraurethral ointment or γ-cyclodextrin complex in K-Y jelly, 1000 μg PGE1 in 0.1 ml): 0 | subjects having a positive pharmacological outcome ([5]; neurogenic ED (N = 5), intracavernosal injection, 0.5 ml of 1.0 mg/ml): 4 | subjects having a positive pharmacological outcome ([5]; neurogenic ED (N = 5), intraurethral ointment or γ-cyclodextrin complex in K-Y jelly, 1000 μg PGE1 in 0.1 ml): 1 | subjects having a positive pharmacological outcome ([5]; psychogenic ED (N = 15), intracavernosal injection, 0.5 ml of 1.0 mg/ml): 11 | subjects having a positive pharmacological outcome ([5]; psychogenic ED (N = 15), intraurethral ointment or γ-cyclodextrin complex in K-Y jelly, 1000 μg PGE1 in 0.1 ml): 9 | percent of subjects having a positive pharmacological outcome [5, 10]: 60% | subjects having a positive pharmacological outcome [5, 10]: 31 | percent of subjects having a positive pharmacological outcome [5, 11]: 31% | subjects having a positive pharmacological outcome [5, 11]: 16 | subjects having a positive pharmacological outcome ([5]; undetermined etiology (N = 7), intracavernosal injection, 0.5 ml of 1.0 mg/ml): 5 | subjects having a positive pharmacological outcome ([5]; undetermined etiology (N = 7), intraurethral ointment or γ-cyclodextrin complex in K-Y jelly, 1000 μg PGE1 in 0.1 ml): 1 | subjects having a positive pharmacological outcome ([5]; vascular ED (N = 24), intracavernosal injection, 0.5 ml of 1.0 mg/ml): 10 | subjects having a positive pharmacological outcome ([5]; vascular ED (N = 24), intraurethral ointment or γ-cyclodextrin complex in K-Y jelly, 1000 μg PGE1 in 0.1 ml): 5 | solubility in water [7]: 8000 micrograms/100 ml

COc1ccc(Cc2nccc3cc(OC)c(OC)cc23)cc1OC [papaverine]
subjects having a positive pharmacological outcome ([5]; hormonal ED (N = 1), intracavernosal injection, 1 ml of 4%): 0 | subjects having a positive pharmacological outcome ([5]; neurogenic ED (N = 5), intracavernosal injection, 1 ml of 4%): 2 | subjects having a positive pharmacological outcome ([5]; psychogenic ED (N = 15), intracavernosal injection, 1 ml of 4%): 10 | percent of subjects having a positive pharmacological outcome [5, 12]: 42% | subjects having a positive pharmacological outcome [5, 12]: 22 | subjects having a positive pharmacological outcome ([5]; undetermined etiology (N = 7), intracavernosal injection, 1 ml of 4%): 3 | subjects having a positive pharmacological outcome ([5]; vascular ED (N = 24), intracavernosal injection, 1 ml of 4%): 7
